Literature values, collected in patent US8642603B2, “Substituted dihydro and tetrahydro oxazolopyrimidinones, preparation and use thereof” (Sanofi, priority 2007, dated 2014).

Experiments:
healthy human subjects = settings: pretreatment
[1] = test system: pentylenetetrazole- and picrotoxin-induced seizures; settings: in vivo
[2] = test system: positive and negative symptoms of schizophrenia; settings: compared to placebo

N[C@H](C(=O)O)c1ccc(C(=O)O)c(O)c1 [(S)-4-carboxy-3-hydroxyphenylglycine]
protection against audiogenic seizures (DBA/2 mice): protects against audiogenic seizures

N[C@@]1(C(=O)O)CO[C@H]2[C@H](C(=O)O)[C@H]21 [LY379268]
effect on REM sleep and fast EEG (rat): suppresses rapid eye movement (REM) sleep and fast EEG

N[C@@]1(C(=O)O)CC[C@H]2[C@H](C(=O)O)[C@H]21 [LY354740]
effect on disruption of working memory by ketamine (healthy human subjects): attenuation of the disruptive effects
effect on pentylenetetrazole- and picrotoxin-induced seizures [1]: attenuates pentylenetetrazole- and picrotoxin-induced seizures

Cc1c(OCc2cccc(-c3ccc(C(=O)O)cc3)c2)cc2c(c1C)C(=O)C(C1CCCC1)C2 (stereo not shown) [biphenyl-indanone A]
antipsychotic- and anxiolytic-like effects (mice): antipsychotic- and anxiolytic-like effects

CSCC[C@H](N)C(=O)N[C@@]1(C(=O)O)CS(=O)(=O)[C@H]2[C@H](C(=O)O)[C@H]21 [LY2140023]
positive and negative symptoms of schizophrenia [2]: statistically significant improvements

N[C@]1(C(=O)O)[C@H]2[C@@H](C[C@H]1OCc1ccc(Cl)c(Cl)c1)[C@]2(F)C(=O)O [MGS0039]
antidepressant-like effects (some animal models): dose-dependent antidepressant-like effects
